Bounds are passed on as bounds.

For series [1], the system named is Lewis lung cancerous cells. The series can be described thus: Inhibitory effect against metastasis of Lewis lung cancer. The class given is in vivo, mice (BDF1 strain). Particulars: L-lysolecithin 40 mg/kg i.p., 10 days. The protocol: 1×10^6 Lewis lung cancerous cells were given intravenously to BDF1 strain (female, 13-week old) mice, and after 24 hours, L-lysolecithin (40 mg/kg) was administered intraperitoneally while a mixture of a fat emulsion (20 ml/kg) and L-lysolecithin (40 mg/kg) was administered intravenously, each for a period of 10 days repeatedly, and at the 11th day, the breast of each test mouse was cut open and the dry weight of the lung (mg mean ± S.E.) was measured. The inhibitory effect was judged by the ratio to the control group (T/C).

A further series concerns mice. The series can be described thus: Acute toxicity. The class given is in vivo. Particulars: female, intravenous injection. The source says:
The results of measurement of acute toxicity on some typical compounds prepared according to this invention are shown in Table 9.
(Test animal: mice, female; intravenous injection)

A further series relates to L-1210 leukemic cells. The series can be described thus: Pre-administration effect to L-1210 (L-1210 allograft). The class given is in vivo, mice (ddN strain). The note with it: i.p., 7 days pre-administration. The protocol: Each test compound was repeatedly administered (at a dose of 40 mg/kg as calculated in terms of L-lysolecithin) intraperitoneally to ddN strain mice (male, 6-week old) for a period of 7 days, and after one-week no-administration period, 1×10^6 L-1210 leukemic cells were inoculated intraperitoneally and the average number of survival days of the test animal was determined.

[2] abbreviates: Table 5, 40 mg/kg L-lysolecithin (No. 7: + 20 ml/kg fat emulsion).

A word on the T/C: it is the result in the treated group divided by that in the control group, in per cent. The LD50 is the dose at which mortality reaches 50%. Read a high LD50 as a less toxic substance. Regarding L-lysolecithin, in series [1], the “Dry lung weight (mean ± S.E.)” value stood at 34.3 ± 1.6 mg and the “Increased weight (mean ± S.E.)” value was found to be 4.7 ± 1.6 mg. In series [1] (ratio to control group), the T/C came out at 29.0%. In addition, the LD50 with mice amounted to 122 mg/kg. For the same substance, in the series with L-1210 leukemic cells (Table 4, 40 mg/kg as L-lysolecithin), the “Average number of survival days” value is given as more than 21.0 days. Moreover, in the series on L-1210 leukemic cells (setting [2]), the “Number of survival days (mean ± S.E.)” value came out at 21.0 days and the “Number of survivor for 21 days/Number of mice tested” value is on record as 6/6.

(Values after patent publication US4372949A, “Treatment of cancer with carcinostatic and immunostimulating agent containing lysophospholipid and phospholipid” (Toyama Chemical Co., Ltd., priority 1979, dated 1983).)
